# Test results published in PubChem BioAssay AID256 (DTP/NCI, 2004).
# Where “and” joins values, the source holds several entries; their conditions need not be identical. Identical values can stand only once. Toxic doses and inconclusive results are not listed.
# System: CD2F1 mice, L1210 leukemia ip, survival T/C
# Assay: NCI In Vivo Anticancer Drug Screen. Data for tumor model L1210 Leukemia (intraperitoneal) in CD2F1 (CDF1) mice
# Conditions: higher = longer survival
# Outline: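 Transplantable tumor in mice; compound-treated vs vehicle-treated groups. Read-out = treated/control ratio of the measured endpoint.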
# [1] = endpoint: mean survival time, dose: 25.0 mg/kg/injection, schedule: Q01DX009 (ip), vehicle: Klucel (hydroxypropylcellulose) (HPC)
# [2] = endpoint: mean survival time, dose: 100.0 mg/kg/injection, schedule: Q01DX009 (ip), vehicle: saline with Tween-80
# [3] = endpoint: mean survival time, dose: 200.0 mg/kg/injection, schedule: Q01DX009 (ip), vehicle: saline with Tween-80
# [4] = endpoint: mean survival time, dose: 400.0 mg/kg/injection, schedule: Q01DX009 (ip), vehicle: saline with Tween-80
# [5] = endpoint: mean survival time, dose: 25.0 mg/kg/injection, schedule: Q04DX003 (ip), vehicle: saline
# [6] = endpoint: mean survival time, dose: 100.0 mg/kg/injection, schedule: Q04DX003 (ip), vehicle: saline with Tween-80
# [7] = endpoint: mean survival time, dose: 200.0 mg/kg/injection, schedule: Q04DX003 (ip), vehicle: saline with Tween-80
# [8] = endpoint: mean survival time, dose: 400.0 mg/kg/injection, schedule: Q04DX003 (ip), vehicle: saline with Tween-80
# [9] = endpoint: mean survival time, dose: 50.0 mg/kg/injection, schedule: Q01DX009 (ip), vehicle: saline with Tween-80
smiles,measurement,setting,value
O=S(CCCl)CCCl,T/C,"endpoint: mean survival time, dose: 0.5 mg/kg/injection, schedule: Q01DX009 (ip), vehicle: Klucel (hydroxypropylcellulose) (HPC)",93 % of control
same,T/C,"endpoint: mean survival time, dose: 0.5 mg/kg/injection, schedule: Q04DX003 (ip), vehicle: Klucel (hydroxypropylcellulose) (HPC)",98 % of control
same,T/C,"endpoint: mean survival time, dose: 1.0 mg/kg/injection, schedule: Q01DX009 (ip), vehicle: Klucel (hydroxypropylcellulose) (HPC)",101 % of control
same,T/C,"endpoint: mean survival time, dose: 1.0 mg/kg/injection, schedule: Q04DX003 (ip), vehicle: Klucel (hydroxypropylcellulose) (HPC)",100 % of control
same,T/C,"endpoint: mean survival time, dose: 1.56 mg/kg/injection, schedule: Q01DX009 (ip), vehicle: Klucel (hydroxypropylcellulose) (HPC)",109 % of control
same,T/C,"endpoint: mean survival time, dose: 2.0 mg/kg/injection, schedule: Q01DX009 (ip), vehicle: Klucel (hydroxypropylcellulose) (HPC)",96 % of control
same,T/C,"endpoint: mean survival time, dose: 2.0 mg/kg/injection, schedule: Q04DX003 (ip), vehicle: Klucel (hydroxypropylcellulose) (HPC)",98 % of control
same,T/C,"endpoint: mean survival time, dose: 3.12 mg/kg/injection, schedule: Q01DX009 (ip), vehicle: Klucel (hydroxypropylcellulose) (HPC)",100 % of control
same,T/C,"endpoint: mean survival time, dose: 4.0 mg/kg/injection, schedule: Q01DX009 (ip), vehicle: Klucel (hydroxypropylcellulose) (HPC)",106 % of control
same,T/C,"endpoint: mean survival time, dose: 4.0 mg/kg/injection, schedule: Q04DX003 (ip), vehicle: Klucel (hydroxypropylcellulose) (HPC)",102 % of control
same,T/C,"endpoint: mean survival time, dose: 6.25 mg/kg/injection, schedule: Q01DX009 (ip), vehicle: Klucel (hydroxypropylcellulose) (HPC)",104 % of control
same,T/C,"endpoint: mean survival time, dose: 8.0 mg/kg/injection, schedule: Q01DX009 (ip), vehicle: Klucel (hydroxypropylcellulose) (HPC)",100 % of control
same,T/C,"endpoint: mean survival time, dose: 8.0 mg/kg/injection, schedule: Q04DX003 (ip), vehicle: Klucel (hydroxypropylcellulose) (HPC)",98 % of control
same,T/C,"endpoint: mean survival time, dose: 12.5 mg/kg/injection, schedule: Q01DX009 (ip), vehicle: Klucel (hydroxypropylcellulose) (HPC)",102 % of control
same,T/C,"endpoint: mean survival time, dose: 16.0 mg/kg/injection, schedule: Q01DX009 (ip), vehicle: Klucel (hydroxypropylcellulose) (HPC)",100 % of control
same,T/C,"endpoint: mean survival time, dose: 16.0 mg/kg/injection, schedule: Q04DX003 (ip), vehicle: Klucel (hydroxypropylcellulose) (HPC)",100 % of control
same,T/C,[1],103 % of control
same,T/C,"endpoint: mean survival time, dose: 32.0 mg/kg/injection, schedule: Q04DX003 (ip), vehicle: Klucel (hydroxypropylcellulose) (HPC)",106 % of control
Cc1ccc(Sc2cccc3c(C)c4cccc5c4c(c23)C[S+]5c2ccc(C)cc2)cc1 (stereo not given),T/C,"endpoint: mean survival time, dose: 6.25 mg/kg/injection, schedule: Q04DX003 (ip), vehicle: saline with Tween-80",98 % of control
O=C(CNC(=O)NCc1ccco1)NNC(=O)Nc1ccc(F)c(Cl)c1,T/C,[2],93 % of control
same,T/C,[3],88 % of control
same,T/C,[4],96 % of control
O=C1CSC(=S)N1c1cccc(C(F)(F)F)c1,T/C,[2],97 % of control
same,T/C,[3],112 % of control
same,T/C,[4],101 % of control
Nc1nc(N)c2cc(CNc3ccc(C(=O)NC(CC(=O)O)CC(=O)O)cc3)ccc2n1,T/C,[1],160 % of control
same,T/C,"endpoint: mean survival time, dose: 50.0 mg/kg/injection, schedule: Q01DX009 (ip), vehicle: Klucel (hydroxypropylcellulose) (HPC)",162 % of control and 206 % of control
same,T/C,"endpoint: mean survival time, dose: 200.0 mg/kg/injection, schedule: Q01DX009 (ip), vehicle: Klucel (hydroxypropylcellulose) (HPC)",114 % of control and 103 % of control
same,T/C,"endpoint: mean survival time, dose: 400.0 mg/kg/injection, schedule: Q01DX009 (ip), vehicle: Klucel (hydroxypropylcellulose) (HPC)",96 % of control and 98 % of control
C[N+](C)(C)C12CCCC1S(=O)(=O)C2 (stereo not given),T/C,[5],106 % of control
same,T/C,"endpoint: mean survival time, dose: 50.0 mg/kg/injection, schedule: Q04DX003 (ip), vehicle: saline",98 % of control
same,T/C,"endpoint: mean survival time, dose: 100.0 mg/kg/injection, schedule: Q04DX003 (ip), vehicle: saline",96 % of control
O=C(Nc1ccccn1)C(O)C(O)C(O)C(O)CO (stereo not given),T/C,"endpoint: mean survival time, dose: 12.5 mg/kg/injection, schedule: Q04DX003 (ip), vehicle: saline with Tween-80",96 % of control
same,T/C,"endpoint: mean survival time, dose: 25.0 mg/kg/injection, schedule: Q04DX003 (ip), vehicle: saline with Tween-80",101 % of control
same,T/C,"endpoint: mean survival time, dose: 50.0 mg/kg/injection, schedule: Q04DX003 (ip), vehicle: saline with Tween-80",89 % of control
S=C=NCc1cccc(CN=C=S)c1,T/C,"endpoint: mean survival time, dose: 1.5 mg/kg/injection, schedule: Q01DX009 (ip), vehicle: saline with Tween-80",98 % of control
same,T/C,"endpoint: mean survival time, dose: 3.0 mg/kg/injection, schedule: Q01DX009 (ip), vehicle: saline with Tween-80",101 % of control
same,T/C,"endpoint: mean survival time, dose: 6.25 mg/kg/injection, schedule: Q04DX003 (ip), vehicle: saline",101 % of control
same,T/C,"endpoint: mean survival time, dose: 12.5 mg/kg/injection, schedule: Q04DX003 (ip), vehicle: saline",103 % of control
same,T/C,[5],101 % of control
O=C1C2C3C=CC(O3)C2C(=O)N1O (stereo not given),T/C,"endpoint: mean survival time, dose: 12.5 mg/kg/injection, schedule: Q01DX009 (ip), vehicle: water",97 % of control
same,T/C,"endpoint: mean survival time, dose: 25.0 mg/kg/injection, schedule: Q01DX009 (ip), vehicle: water",96 % of control
Cc1ccc([Si](C)Cl)cc1,T/C,[2],96 % of control
same,T/C,[3],93 % of control
CCCCCCCCCCCCCCCC/C(=C\c1ccc2ccccc2c1)[N+](=O)[O-],T/C,"endpoint: mean survival time, dose: 75.0 mg/kg/injection, schedule: Q01DX001 (ip), vehicle: other",106 % of control
same,T/C,"endpoint: mean survival time, dose: 150.0 mg/kg/injection, schedule: Q01DX001 (ip), vehicle: other",96 % of control
same,T/C,"endpoint: mean survival time, dose: 300.0 mg/kg/injection, schedule: Q01DX001 (ip), vehicle: other",95 % of control
CN(C)c1ccc(-c2nnc(-c3ccc(N(C)C)cc3)nn2)cc1,T/C,[6],93 % of control
same,T/C,[7],92 % of control
same,T/C,[8],95 % of control
S=C(Cc1ccccc1)N1CCOCC1,T/C,"endpoint: mean survival time, dose: 100.0 mg/kg/injection, schedule: Q01DX001 (ip), vehicle: saline with Tween-80",98 % of control
same,T/C,"endpoint: mean survival time, dose: 200.0 mg/kg/injection, schedule: Q01DX001 (ip), vehicle: saline with Tween-80",102 % of control
same,T/C,"endpoint: mean survival time, dose: 300.0 mg/kg/injection, schedule: Q01DX001 (ip), vehicle: saline with Tween-80",101 % of control
CCCCNC(=O)NCCc1ccc(OC)c(OC)c1,T/C,[2],87 % of control
same,T/C,[3],89 % of control
CCC1=CC(C)(C)CC(C)=C1 (tested in a mixture with another compound),T/C,[9],110 % of control
same,T/C,[2],100 % of control
same,T/C,[6],96 % of control
same,T/C,[7],96 % of control
same,T/C,[8],93 % of control
COC(=O)c1ncn(C2OC(COC(=O)c3ccccc3)C(OC(=O)c3ccccc3)C2OC(=O)c2ccccc2)c1C(=O)OC (stereo not given),T/C,"endpoint: median survival time, dose: 8.75 mg/kg/injection, schedule: Q01DX005 (ip), vehicle: distilled water + Tween-80",93 % of control
same,T/C,"endpoint: median survival time, dose: 12.5 mg/kg/injection, schedule: Q01DX005 (ip), vehicle: distilled water + Tween-80",97 % of control
same,T/C,"endpoint: median survival time, dose: 25.0 mg/kg/injection, schedule: Q01DX005 (ip), vehicle: distilled water + Tween-80",90 % of control
same,T/C,"endpoint: median survival time, dose: 35.0 mg/kg/injection, schedule: Q01DX005 (ip), vehicle: distilled water + Tween-80",103 % of control
same,T/C,"endpoint: median survival time, dose: 50.0 mg/kg/injection, schedule: Q01DX005 (ip), vehicle: distilled water + Tween-80",88 % of control
same,T/C,"endpoint: median survival time, dose: 100.0 mg/kg/injection, schedule: Q01DX005 (ip), vehicle: distilled water + Tween-80",92 % of control
same,T/C,"endpoint: median survival time, dose: 140.0 mg/kg/injection, schedule: Q01DX005 (ip), vehicle: distilled water + Tween-80",89 % of control
same,T/C,"endpoint: median survival time, dose: 200.0 mg/kg/injection, schedule: Q01DX005 (ip), vehicle: distilled water + Tween-80",97 % of control
Cc1ccc(OP(=O)(c2ccccc2)c2ccccc2)cc1,T/C,[6],98 % of control
same,T/C,[7],100 % of control
same,T/C,[8],100 % of control
COc1ccc(C(C(N)=O)N2CCCC2)cc1 (stereo not given),T/C,[2],89 % of control
same,T/C,[3],90 % of control
O=C(N/N=C/c1ccc2c(c1)OCO2)c1cccc(C(F)(F)F)c1,T/C,"endpoint: mean survival time, dose: 12.5 mg/kg/injection, schedule: Q01DX009 (ip), vehicle: saline with Tween-80",95 % of control
same,T/C,"endpoint: mean survival time, dose: 25.0 mg/kg/injection, schedule: Q01DX009 (ip), vehicle: saline with Tween-80",91 % of control
same,T/C,[9],91 % of control and 104 % of control
same,T/C,[3],89 % of control
C1OCC2[CH2][Hg][S][Hg][CH2]C1O2,T/C,"endpoint: mean survival time, dose: 4.0 mg/kg/injection, schedule: Q01DX015 (ip), vehicle: saline",109 % of control
same,T/C,"endpoint: mean survival time, dose: 8.0 mg/kg/injection, schedule: Q01DX015 (ip), vehicle: saline",107 % of control
O=S(=O)(/N=C1\c2ccccc2/C(=N\S(=O)(=O)c2ccccc2)C2C3C=CC(C3)C12)c1ccccc1 (stereo not given),T/C,"endpoint: mean survival time, dose: 25.0 mg/kg/injection, schedule: Q01DX001 (ip), vehicle: saline sonified",107 % of control
same,T/C,"endpoint: mean survival time, dose: 50.0 mg/kg/injection, schedule: Q01DX001 (ip), vehicle: saline sonified",102 % of control
same,T/C,"endpoint: mean survival time, dose: 100.0 mg/kg/injection, schedule: Q01DX001 (ip), vehicle: saline sonified",101 % of control
N#CCCn1ccc2ccccc21,T/C,"endpoint: mean survival time, dose: 100.0 mg/kg/injection, schedule: Q01DX009 (ip), vehicle: other",98 % of control
same,T/C,"endpoint: mean survival time, dose: 200.0 mg/kg/injection, schedule: Q01DX009 (ip), vehicle: other",104 % of control
same,T/C,"endpoint: mean survival time, dose: 400.0 mg/kg/injection, schedule: Q01DX009 (ip), vehicle: other",98 % of control
